Laboratory results as given in patent publication US20070292492A1, “PHARMACEUTICAL FORMULATIONS FOR IONTOPHORETIC TETRACYCLINE ANTIBIOTIC DELIVERY” (priority 2006, published 2007).
Where a name gives a salt, the structure may show the parent alone. Read-outs that look alike come from different tables or passages of the source.

Assays:
[1] = format: in vitro ADME, hairless rat
Description: • Freshly excised full thickness hairless rat skin (approximately 1 mm thick) was mounted in between the donor and receptor compartments of the horizontal diffusion cells with the stratum corneum facing the donor compartment. • The receptor compartment contained phosphate buffer (4 ml) at pH 7.4, and the donor compartment contained one of the following tetracycline hydrochloride solutions (4 ml): water (pH 2.1, 37 mg/ml), citrate buffer (pH 3.0, 9 mg/ml), phosphate buffer (pH 8.0, 0.7 mg/ml), or Teorell buffer (pH 8.3, 5.9 mg/ml, pH 11.9: 20 mg/ml). • The apparatus was maintained at 32° C., with constant stirring in both the donor and receptor compartments using magnetic stir bars to maintain sink conditions. • Silver/Silver chloride electrodes were used for iontophoresis. The area of skin exposed to the donor was 0.64 cm^2. • Current densities of 0.2 and 0.3 mA/cm^2 were applied for 1 h; and current density of 0.4 mA/cm^2 was applied for 30 min, 1 h and 2 h. Samples were collected for a period of 10 h. Both anodal and cathodal iontophoresis were performed. • At predetermined intervals, 0.5 ml of sample was collected from the receptor chamber and replenished with 0.5 ml of phosphate buffer (pH7.4). Analysis of Tetracycline Hydrochloride: • Samples from the receptor chamber were analyzed for the amount of tetracycline hydrochloride using a Shimadzu HPLC with a reverse phase column (Phenomenex, Luna C18 column with 5μ pore size). • The composition of the mobile phase used was 0.01N oxalic acid and acetonitrile (75:25) at a flow rate of 0.8 ml/min using a detection wavelength of 360 nm. Results: • The cumulative amount of drug permeating through the skin passively at the end of 10 h was 1.7±0.45 μg/cm^2 (FIG. 1). • Iontophoresis improved the delivery of the drug across the skin. i) The cumulative amount permeated through the skin at the end of 10 h by anodal iontophoresis for 1 h was 11.18±2.02 μg/cm^2. ii) The cumulative amount of the drug delivered at the end of 10 h by cathodal iontophoresis for 1 h was 19.65±6.9 μg/cm^2 (FIGS. 1 and 2). The current density used was 0.4 mA/cm^2 in both the cases. • The cumulative amount of drug permeated through the skin increased with an increase in the current density. The cumulative amount of the drug permeated through the skin over 10 hours increased from 5.85±0.72 μg/cm^2 to 19.65±6.9 μg/cm^2 with an increase in the current density from 0.2 mA/cm^2 to 0.4 mA/cm^2 (FIG. 3). • The amount of drug permeated through the skin increased with an increase in the duration of current application. […] For a donor concentration of 10 mg/ml, 22.11 μg/cm^2 of tetracycline hydrochloride permeated through the skin as compared to 8.25 μg/cm^2 delivered from a donor concentration of 2.5 mg/ml (FIG. 5). For all the above studies except anodal iontophoresis, tetracycline hydrochloride solution in borate buffer at pH 9.4 was employed. For anodal iontophoresis, tetracycline hydrochloride in citrate buffer at pH 3.0 has been used.

[2] = In vivo intracutaneous microdialysis with cathodal iontophoresis; design: species or system hairless rat; details: 10 mg/mL, pH ~9.3; cathodal iontophoresis 200-400 μA/cm^2 for 0.5-4 hours; 4 hours of application time
Description: In vivo microdialysis studies were undertaken to determine the effect of current and time on the transdermal delivery of tetracycline using iontophoresis. The study placed a tetracycline formulation (10 mg/mL, pH ˜9.3) in a cartridge designed for iontophoresis. […] Cathodal iontophoresis current was varied from 200-400 μA/cm^2 for a period of 0.5-4 hours. The microdialysis dialysate samples collected were analyzed using HPLC. Potential skin irritation was monitored using chromameter, laser Doppler velocimetry (LDV) and transepidermal water loss (TEWL).

Question: With `CN(C)[C@@H]1C(O)=C(C(N)=O)C(=O)[C@@]2(O)C(O)=C3C(=O)c4c(O)cccc4[C@@](C)(O)[C@H]3C[C@@H]12` [tetracycline hydrochloride] as the compound, how does the “amount of tetracycline hydrochloride permeated through the skin” value ([1]; hairless, rat, 2.5 mg/ml, pH 9.4) read?
Answer: 8.25 μg/cm^2

Question: And the “amount of tetracycline hydrochloride permeated through the skin” value ([1]; hairless, rat, 10 mg/ml, pH 9.4)?
Answer: 22.11 μg/cm^2

Question: What about the “cumulative amount permeated through the skin at the end of 10 h by anodal iontophoresis” value ([1]; hairless, rat, 10 h, 9 mg/ml, pH 3) of the same compound?
Answer: 11.18±2.02 μg/cm^2

Question: What about the “cumulative amount of drug permeating through the skin passively at the end of 10 h” value ([1]; hairless, rat, 10 h, pH 9.4) of the same compound?
Answer: 1.7±0.45 μg/cm^2

Question: What about the “cumulative amount of the drug delivered at the end of 10 h by cathodal iontophoresis” value ([1]; hairless, rat, 10 h, pH 9.4) of the same compound?
Answer: 19.65±6.9 μg/cm^2

Question: And the “cumulative amount of the drug permeated through the skin over 10 hours” value ([1]; hairless, rat, 10 h, pH 9.4)?
Answer: 5.85±0.72 μg/cm^2

Question: What about the “cumulative amount of drug permeated through the skin, cathodal iontophoresis compared to anodal iontophoresis or passive delivery” value ([1]; pH 9.4) of the same compound?
Answer: significantly increased

Question: For `CN(C)[C@@H]1C(O)=C(C(N)=O)C(=O)[C@@]2(O)C(O)=C3C(=O)c4c(O)cccc4[C@@](C)(O)[C@H]3C[C@@H]12` [tetracycline], which “tetracycline concentration in the skin by microdialysis as a function of duration of current application” value [2] is on record?
Answer: highest amount of tetracycline concentration
